Assay results reported in the OligoGym collection.
Bases are written 5' to 3'; sugars and linkages follow in the same order, as letters with counts (s phosphorothioate, o phosphodiester; PS: all linkages phosphorothioate). C may stand for cytosine or 5-methylcytosine; the collection does not tell. l = locked nucleic acid (LNA); d = 2'-deoxy (DNA)

Molecular target: HIF1A
Assay: HeLa, 100 nM transfected, 24 h, mean of 3
Conditions: ASO

Sequence	caspase activation (% of PBS control)
GTTACTGCCTTCTTAC (sugars llddlddddddllddl, PS)	231
GTTACTGCCTTCTTAC (sugars llddlddddddlldll, PS)	208
GTTACTGCCTTCTTAC (sugars llddlddddddllldl, PS)	373
GTTACTGCCTTCTTAC (sugars lldldddddddddldl, PS)	138
GTTACTGCCTTCTTAC (sugars lldlddddddddlddl, PS)	135
GTTACTGCCTTCTTAC (sugars lldlddddddddldll, PS)	139
GTTACTGCCTTCTTAC (sugars lldlddddddddlldl, PS)	187
GTTACTGCCTTCTTAC (sugars lldldddddddldddl, PS)	155
GTTACTGCCTTCTTAC (sugars lldldddddddlddll, PS)	161
GTTACTGCCTTCTTAC (sugars lldldddddddldldl, PS)	193
GTTACTGCCTTCTTAC (sugars lldldddddddldlll, PS)	170
GTTACTGCCTTCTTAC (sugars lldldddddddllddl, PS)	196
GTTACTGCCTTCTTAC (sugars lldldddddddlldll, PS)	163
GTTACTGCCTTCTTAC (sugars lldldddddddllldl, PS)	307
GTTACTGCCTTCTTAC (sugars lldllddddddddldl, PS)	291
GTTACTGCCTTCTTAC (sugars lldlldddddddlddl, PS)	278
GTTACTGCCTTCTTAC (sugars lldlldddddddldll, PS)	293
GTTACTGCCTTCTTAC (sugars lldlldddddddlldl, PS)	363
GTTACTGCCTTCTTAC (sugars lldllddddddldddl, PS)	260
GTTACTGCCTTCTTAC (sugars lldllddddddlddll, PS)	261
GTTACTGCCTTCTTAC (sugars lldllddddddldldl, PS)	294
GTTACTGCCTTCTTAC (sugars lldllddddddldlll, PS)	278
GTTACTGCCTTCTTAC (sugars lldllddddddllddl, PS)	356
GTTACTGCCTTCTTAC (sugars lldllddddddlldll, PS)	289
GTTACTGCCTTCTTAC (sugars lldllddddddllldl, PS)	506
GTTACTGCCTTCTTAC (sugars lllddddddddldldl, PS)	233

Sequence	caspase activation (% of PBS control)
GTTACTGCCTTCTTAC (sugars llldlddddddddldl, PS)	271
GTTACTGCCTTCTTAC (sugars llldldddddddlddl, PS)	277
GTTACTGCCTTCTTAC (sugars llldldddddddldll, PS)	274
GTTACTGCCTTCTTAC (sugars llldldddddddlldl, PS)	341
GTTACTGCCTTCTTAC (sugars llldlddddddldddl, PS)	272
GTTACTGCCTTCTTAC (sugars llldlddddddlddll, PS)	283
GTTACTGCCTTCTTAC (sugars llldlddddddldldl, PS)	316
GTTACTGCCTTCTTAC (sugars llldlddddddldlll, PS)	273
GTTACTGCCTTCTTAC (sugars llldlddddddllddl, PS)	308
GTTACTGCCTTCTTAC (sugars llldlddddddlldll, PS)	307
GTTACTGCCTTCTTAC (sugars llldlddddddllldl, PS)	485
GTTACTGCCTTCTTAC (sugars lllldddddddldldl, PS)	281
GTTACTGCCTTCTTAC (sugars lllllddddddldldl, PS)	467
TACTGCCTTCTTA (sugars l1 d1 l1 d7 l3, PS)	494
TACTGCCTTCTTA (sugars l1 d1 l1 d8 l2, PS)	277
TACTGCCTTCTTA (sugars l1 d1 l1 d9 l1, PS)	193
TACTGCCTTCTTA (sugars l1 d1 l2 d6 l3, PS)	585
TACTGCCTTCTTA (sugars l1 d1 l2 d7 l2, PS)	448
TACTGCCTTCTTA (sugars l1 d1 l2 d8 l1, PS)	270
TACTGCCTTCTTA (sugars l1 d2 l1 d6 l3, PS)	246
TACTGCCTTCTTA (sugars l1 d2 l1 d7 l2, PS)	156
TACTGCCTTCTTA (sugars l1 d2 l1 d8 l1, PS)	118
TACTGCCTTCTTA (sugars l1 d9 l1 d1 l1, PS)	142
TACTGCCTTCTTA (sugars l1 d9 l3, PS)	158
TACTGCCTTCTTA (sugars l1 d10 l2, PS)	130
TACTGCCTTCTTA (sugars l1 d11 l1, PS)	112

Sequence	caspase activation (% of PBS control)
TACTGCCTTCTTA (sugars l2 d1 l1 d6 l3, PS)	427
TACTGCCTTCTTA (sugars l2 d1 l1 d7 l2, PS)	295
TACTGCCTTCTTA (sugars l2 d1 l1 d8 l1, PS)	222
TACTGCCTTCTTA (sugars l2 d8 l1 d1 l1, PS)	223
TACTGCCTTCTTA (sugars l2 d8 l3, PS)	363
TACTGCCTTCTTA (sugars l2 d9 l2, PS)	184
TACTGCCTTCTTA (sugars l2 d10 l1, PS)	152
TACTGCCTTCTTA (sugars l3 d7 l1 d1 l1, PS)	368
TACTGCCTTCTTA (sugars l3 d7 l3, PS)	489
TACTGCCTTCTTA (sugars l3 d8 l2, PS)	317
TACTGCCTTCTTA (sugars l3 d9 l1, PS)	286
TACTGCCTTCTTA (sugars l4 d6 l1 d1 l1, PS)	508
TACTGCCTTCTTA (sugars l4 d6 l3, PS)	404
TACTGCCTTCTTA (sugars l4 d7 l2, PS)	594
TACTGCCTTCTTA (sugars l4 d8 l1, PS)	435
TACTGCCTTCTTA (sugars lddlddddddldl, PS)	133
TACTGCCTTCTTA (sugars ldldddddddldl, PS)	237
TACTGCCTTCTTA (sugars ldllddddddldl, PS)	317
TACTGCCTTCTTA (sugars lldlddddddldl, PS)	293
TGGCAAGCATCCT (sugars l1 d1 l1 d7 l3, PS)	127
TGGCAAGCATCCT (sugars l1 d1 l1 d8 l2, PS)	145
TGGCAAGCATCCT (sugars l1 d1 l1 d9 l1, PS)	160
TGGCAAGCATCCT (sugars l1 d1 l2 d6 l3, PS)	260
TGGCAAGCATCCT (sugars l1 d1 l2 d7 l2, PS)	353
TGGCAAGCATCCT (sugars l1 d1 l2 d8 l1, PS)	327
TGGCAAGCATCCT (sugars l1 d2 l1 d6 l3, PS)	112

Sequence	caspase activation (% of PBS control)
TGGCAAGCATCCT (sugars l1 d2 l1 d7 l2, PS)	157
TGGCAAGCATCCT (sugars l1 d2 l1 d8 l1, PS)	178
TGGCAAGCATCCT (sugars l1 d9 l1 d1 l1, PS)	242
TGGCAAGCATCCT (sugars l1 d9 l3, PS)	330
TGGCAAGCATCCT (sugars l1 d10 l2, PS)	253
TGGCAAGCATCCT (sugars l1 d11 l1, PS)	123
TGGCAAGCATCCT (sugars l2 d1 l1 d6 l3, PS)	259
TGGCAAGCATCCT (sugars l2 d1 l1 d7 l2, PS)	361
TGGCAAGCATCCT (sugars l2 d1 l1 d8 l1, PS)	383
TGGCAAGCATCCT (sugars l2 d8 l1 d1 l1, PS)	407
TGGCAAGCATCCT (sugars l2 d8 l3, PS)	315
TGGCAAGCATCCT (sugars l2 d9 l2, PS)	434
TGGCAAGCATCCT (sugars l2 d10 l1, PS)	364
TGGCAAGCATCCT (sugars l3 d7 l1 d1 l1, PS)	268
TGGCAAGCATCCT (sugars l3 d7 l3, PS)	249
TGGCAAGCATCCT (sugars l3 d8 l2, PS)	217
TGGCAAGCATCCT (sugars l3 d9 l1, PS)	287
TGGCAAGCATCCT (sugars l4 d6 l1 d1 l1, PS)	480
TGGCAAGCATCCT (sugars l4 d6 l3, PS)	361
TGGCAAGCATCCT (sugars l4 d7 l2, PS)	447
TGGCAAGCATCCT (sugars l4 d8 l1, PS)	471
TGGCAAGCATCCT (sugars lddlddddddldl, PS)	132
TGGCAAGCATCCT (sugars ldldddddddldl, PS)	170
TGGCAAGCATCCT (sugars ldllddddddldl, PS)	377
